# From US20150274701A1, “NEW AZIDES, METHOD FOR PRODUCING SAME AND APPLICATIONS THEREOF” (COMMISSARIAT A L'ENERGIE ATOMIQUE ET AUX ENERGIES …, priority 2012, published 2015)
# Columns and labels:
# [1] = Azide/alkyne click reaction kinetics in a buffered medium (fluorescent test); details: for Reaction rate / Ligation yield: aqueous medium at neutral pH, azide, alkyne and Cu 17.5 μM, sodium ascorbate 475 μM (25 eq); for Ligation yield: monitored for 20 minutes
# Method: The azide/alkyne coupling reaction kinetics obtained using azides of the present invention and also the kinetics obtained using copper-chelating compounds and azides of the prior art were studied.
# The kinetics were done under concentration conditions conventional in bioconjugation, i.e. in an aqueous medium at neutral pH and under conditions of low concentration of reagents: azide, alkyne and Cu 17.5 μM, sodium ascorbate 475 μM (25 eq).
# The reactivity of the azides of the invention with respect to the azide/alkyne “click” reaction was evaluated by means of a fluorescent test (scheme 1) which makes it possible to establish the kinetic parameters of the reaction and to compare them with the solutions from the literature. This test uses a pro-fluorescent alkyne C1 which forms a highly fluorescent cycloaddition product C2. The synthesis and the fluorescence properties are described in the literature.
# 100 μl of a solution containing 35 μM of alkyne C1 and 35 μm of azide RN3 dissolved in a DMF/H2O mixture (50/50) are added to 50 μl of an aqueous solution containing 70 μM of CuSO4. The reaction is then initiated by adding 50 μl of an aqueous solution containing 1.75 mM of ascorbic acid (AS). The cycloaddition reaction is monitored by measuring, every 5 seconds, for 20 minutes, the fluorescence intensity at 400 nm following excitation at 320 nm. The reaction yield is calculated by means of a calibration range previously established with the cyclo-adduct C2.
# [2] = Ligation kinetics in a complex medium (cell lysate), fluorescent test; details: azide and alkyne 17.5 μM, Cu 350 μM, sodium ascorbate 8.75 mM (500 eq)
# Method: An experiment was also carried out in a cell culture medium. The process was carried out as follows:
# 100 μl of a solution containing 35 μM of alkyne C1 and 35 μM of azide RN3 dissolved in cell lysate are added to 50 μl of cell lysate containing 1.4 mM of CuSO4. The reaction is then initiated by adding 50 μl of an aqueous solution containing 1.75 mM of ascorbic acid (AS). The cycloaddition reaction is monitored by measuring, every 5 seconds, for 20 minutes, the fluorescence intensity at 400 nm following excitation at 320 nm. The reaction yield is calculated by means of a calibration range previously established with the cyclo-adduct C2.
# Conditions: Azide and alkyne 17.5 μM, Cu 350 μM, sodium ascorbate 8.75 mM (500 eq).
# [3] = Click reaction kinetics of chelating azides in phosphate buffer (fluorescent test); details: 0.1M phosphate buffer pH 7.4; alkyne and azide 17 μM, copper sulfate 34 μM, sodium ascorbate 850 μM
# Method: (§1) The reaction kinetics were determined by means of a fluorescent test illustrated by the reaction below, making it possible to establish the kinetic parameters of the reaction and to compare them with the solutions from the literature. This test uses a pro-fluorescent alkyne which forms a highly fluorescent cycloaddition product.
# (§2) The operating conditions are the following: the same concentration of 17 μM was used for the alkyne and for the azide. The copper sulfate concentration was 34 μM and the sodium ascorbate (AS) concentration was 850 μM.
# (§3) The process was carried out, on the one hand, in a 0.1M phosphate buffer at pH 7.4 and, on the other hand, in a cell lysate obtained by means of three cycles of sonication of Jurkat ([…]) for 30 seconds. The alkyne, the azide and the copper sulfate are mixed at ambient temperature for 30 minutes and then the kinetics are initiated by adding sodium ascorbate.
# [4] = Click reaction kinetics of chelating azides in cell lysate (fluorescent test); details: cell lysate of Jurkat (human T-cell leukemia), alkyne and azide 17 μM, copper sulfate 34 μM, sodium ascorbate 850 μM
# Method: as §1, §2, §3
# HuH-7 cells = test: Ligation in living cells, fluorescence microscopy; assay type: cell-based; details: HuH-7 cells pre-incubated with 62.5 nM paclitaxel-alkyne 2; 100 μM copper complex of compound 1 for 4 h
# Method: HuH-7 cells fixed on 96-well plates, incubated beforehand in the presence of paclitaxel 2 comprising an alkyne function, were treated with the copper complex above.
# The cells were treated with 100 μl of a 62.5 nM solution of compound 2 dissolved in 0.1M phosphate buffer, and then incubated at 37° C. for 30 min. The cells are then washed twice by adding 100 μl of 0.1M phosphate buffer and then treated for 4 h with 100 μl of a 100 μM solution of the copper complex of compound 1. The cells are again washed twice by adding 100 μl of 0.1M phosphate buffer and then fixed by treating with 150 μl of a 4% formaldehyde solution. After fixing for 15 min, the cells are washed twice by adding 100 μl of 0.1M phosphate buffer and then incubated with a 62.5 nM solution of Tubulin Tracker® Green 3 for 30 min at 37° C. The cells are again washed with 0.1M phosphate buffer and then observed by fluorescence microscopy.
# After cell washing steps, the fluorescence of the rhodamine part of the copper complex of compound 1 was measured. […] Compound 3, a covalent conjugate between the paclitaxel and the Oregon Green® fluorophore, was used as a control.
# FIG. 8A illustrates the localization of the cell nucleus by the 4′,6′-diamidino-2-phenylindole reagent.
Compound,Reaction rate [1],Ligation yield [1],position of the ligation yield versus time curve in FIG. 5 [2],click reaction activity (FIG. 6) [3],click reaction activity (FIG. 7) [4],also measured
"[N-]=[N+]=NCc1ccccn1 [Comparative example 2, reference compound]",4.2 µM/min,28%,–,–,–,–
"COc1ccnc(CN=[N+]=[N-])c1 [Comparative example 3, reference compound]",3.5 µM/min,35%,lower curves,–,–,–
"[N-]=[N+]=NCCCN(Cc1cn(CCCCC(=O)O)nn1)Cc1cn(CCCCC(=O)O)nn1 [Example 1, 5,5′-(4,4′-(((3-azidopropyl)azanediyl)bis(methylene))bis(1H-1,2,3-triazole-4,1-diyl))dipentanoic acid]",12.0 µM/min,74%,–,make it possible to carry out the click reaction with efficiency,make it possible to carry out the click reaction with efficiency,ligation yields relative to the best comparable compounds of the prior art ([1]; buffered medium): twice as high
"CC(C)(C)n1cc(CN(CCCN=[N+]=[N-])Cc2cn(CCCCC(=O)O)nn2)nn1 [Example 2, 5-(4-(((3-azidopropyl)((1-(tert-butyl)-1H-1,2,3-triazol-4-yl)methyl)amino)methyl)-1H-1,2,3-triazol-1-yl)pentanoic acid]",–,–,upper curve,make it possible to carry out the click reaction with efficiency,particularly effective,click reaction activity (FIG. 7) ([4]; listed as A20): make it possible to carry out the click reaction with efficiency
"[N-]=[N+]=NCCCN(Cc1ccccn1)Cc1ccccn1 [Example A14, reference compound]",–,–,–,inactive,inactive,–
"Cn1c(CN(CCCN=[N+]=[N-])Cc2nc3ccccc3n2C)nc2ccccc21 [Preparation 1, 3-Azido-N,N-bis((1-methyl-1H-benzo[d]imidazol-2-yl)methyl)propan-1-amine]",101.7 µM/min,65%,–,–,–,click reaction faster than the comparable compounds of the prior art ([1]; buffered medium): approximately 20 times
"[N-]=[N+]=NCCCN(Cc1cn(Cc2ccccc2)nn1)Cc1cn(Cc2ccccc2)nn1 [Preparation 2, 3-azido-N, N-bis((1-benzyl-1H-1,2,3-triazol-4-yl)methyl)propan-1-amine]",10.8 µM/min,45%,–,–,–,–
"CN(C)c1ccc2c(-c3cc(C(=O)NCCCN4C(=O)CC(SCC(=O)NCCCNC(=O)CCCn5cc(CN(CCCN=[N+]=[N-])Cc6cn(C(C)(C)C)nn6)nn5)C4=O)ccc3C(=O)[O-])c3ccc(=[N+](C)C)cc-3oc2c1 (centres unmarked) [azide 1, 4-((3-(3((2-((3-(4-(4-(((3-azidopropyl)((1-(tert-butyl)-1H-1,2,3-triazol-4-yl)methyl)amino)methyl)-1H-1,2,3-triazol-1-yl)butanamido)propyl)amino)-2-oxoethyl)thio)-2,5-dioxopyrrolidin-1-yl)propyl)carbamoyl)-2-(6-(dimethylamino)-3-(dimethyliminio)-3H-xanthen-9-yl)benzoate]",–,–,–,–,–,cell penetration and intracellular click coupling to paclitaxel-alkyne 2 bound to tubulin (FIG. 8) (HuH-7 cells): capable of penetrating inside the cells and of coupling
"Diethyl 5,5′-(4,4′-(((3-azidopropyl)azanediyl)bis(methylene))bis(1H-1,2,3-triazole-4,1-diyl))dipentanoate [Preparation 3]",16.5 µM/min,67%,middle curve,–,–,ligation yields relative to the best comparable compounds of the prior art ([1]; buffered medium): twice as high
